Assay results: US20120004281A1, “RNA Interference Mediated Inhibition of the Nerve Growth Factor Beta Chain (NGFB) Gene Expression Using Short Interfering Nucleic Acid (siNA)” (Merck Sharp & Dohme Corp, priority 2009, published 2012)
[invAb] = inverted abasic unit; m = 2'-O-methyl; r = 2'-OH (RNA); f = 2'-fluoro

Legend:
[1] = target: T1, NGF (Homo sapiens, UniProt P01138); conditions: 440 patients, moderate-severe OA knee pain, 100 or 200 mcg/kg; 26% of patients given placebo; cited from earlier work
T1 construct: host or cells: patients (in vivo)
T1 sequence (P01138 122-241): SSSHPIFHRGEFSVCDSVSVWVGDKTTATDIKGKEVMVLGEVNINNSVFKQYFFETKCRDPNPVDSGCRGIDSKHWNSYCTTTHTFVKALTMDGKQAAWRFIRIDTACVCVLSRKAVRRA

[2] = system: NGFβ protein; experiment: NGFβ ELISA (protein knock-down in Calu-1 cells); format: cell-based, human; conditions: for Max % Protein Reduction at 3 nM: 3 nM siNA, relative to negative universal control siNA (UC3); for IC50: 200 fM to 3 nM siNA, ELISA
Protocol: In a 96-well plate, 5,000 Calu-1cells/well were seeded in 100 uL of complete growth media and incubated overnight at 37° C. with 5% CO2. The cells were transfected with siNAs using RNAiMax (Invitrogen, Cat# 13778-150); final concentration of siNAs is 3e-09, le-09, 3e-10, le-10, 4e-11, le-11, 4e-12, le-12, 5e-13, and 2e-13 M. The amount of RNAiMax in each well is 0.3 uL. The siNAs were incubated for 24 hours. The medium was replaced with 100 uL of fresh complete growth medium. The cells were incubated for 48 hours. 80 uL of the medium from each well was collected into a separate 96-well plate. The samples were frozen immediately at −80° C. until ready the assay was ready to be performed.
ELISA was performed using NGF Emax® ImmunoAssay System (Promega, Cat # G7630) according to the manufaturer's instructions. The samples were diluted 1:2 with the blocking buffer provided in the kit. The samples absorbance was recorded at 450 nm on a SpectraMax plate reader (Molecular Devices) within 30 minutes of stopping the reaction.
Sigmaplot was used to determine IC50 values for each of the tested siRNAs using a sigmoidal dose response calculation. The maximum percentage of protein knock-down was determined by dividing the pg/mL at each treated siNA concentration by the pg/mL of the control treated cells at the same concentration of siNA. This number was then converted to a percentage to give the percent of protein remaining.
Various siNAs were also evaluated for their potential to knock-down NGFβ protein using an ELISA assay. Six siNAs were tested in an NGFβ ELISA assay across a range of concentrations of siNAs (200 fM to 3 nM) and the level of reduction of protein was determined relative to treatment of the cells with identical concentrations of the negative universal control siNA (UC3) (see Table 6).

[3] = system: NGFβ mRNA; experiment: NGFβ mRNA knock-down in Calu-1 cells (RNAiMax transfection, Taqman RT-PCR); format: cell-based, human; conditions: for Primary Screen % KD (10 nM) / IC50 / Maximum % KD in DRC: human CaLu-1 cells; for Primary Screen % KD (10 nM): mean ± S.D. of four experiments; for IC50 / Maximum % KD in DRC: dose response 0.083fM to 30 nM, mean ± S.D.; for % KD in CaLu-1 Cells: human Calu-1 cells, 10 nM siNA, 24 hrs post-transfection, relative to non-targeting control, normalized to GAPDH

Row | Substance | patients with 50% decline in pain [1] | Max % Protein Reduction at 3 nM [2] | IC50 [2] | Primary Screen % KD (10 nM) [3] | IC50 [3] | Maximum % KD in DRC [3] | % KD in CaLu-1 Cells [3]
1 | Tanezumab | approximately 75% | – | – | – | – | – | –
2 | 25413-DC: siNA duplex, NGFβ target site 153; sense B cuGAGGuGcAuAGcGuAAu TTB (SEQ ID NO: 51), antisense AUUAcGcuAuGcAccucAGUU (SEQ ID NO: 52) (sense CUGAGGUGCAUAGCGUAAUTT; antisense AUUACGCUAUGCACCUCAGUU; sense: DNA at AGT, 2'-fluoro at CU, [invAb] at 5' end, 3' end, backbone not given here; antisense: sugars from the 5' end rrrmfmffmfmfmffffmmmm, backbone not given here) | – | 77% | 0.253 nM | 76 ± 6% | 38 ± 35 pM | 69 ± 8% | 68%
3 | 25425-DC: siNA duplex, NGFβ target site 181; sense B GuucuAcAcucuGAucAcA TTB (SEQ ID NO: 75), antisense UGUGAucAGAGuGuAGAAcUU (SEQ ID NO: 76) (sense GUUCUACACUCUGAUCACATT; antisense UGUGAUCAGAGUGUAGAACUU; sense: DNA at AGT, 2'-fluoro at CU, [invAb] at 5' end, 3' end, backbone not given here; antisense: sugars from the 5' end rrrmmffmmmmfmfmmmmfmm, backbone not given here) | – | 87% | 0.074 nM | 83 ± 6% | 20 ± 19 pM | 72 ± 1% | 80%
